In US20260027101A1, “BACTERIAL TOPOISOMERASE INHIBITORS” (priority 2022, published 2026):
≈ marks a conversion by molar mass, not a printed value. Where two headings read alike, the source gives them in different places.

Assays:
Assay type in all cases: cell-based
[1] = tested on: Staphylococcus aureus ATCC 29213; experiment: MIC, S. aureus ATCC 29213 (CLSI)
Experimental: (§1) Minimum inhibitory concentrations (MICs) were determined in triplicate according to Clinical and Laboratory Standards Institute (CLSI) guidelines using one or more strains of S. aureus or selected Gram-negative bacteria. […] Compounds were also assayed using a USA300 (Hidron, A. I., et al., Emergence of Community-Acquired Meticillin-Resistant Staphylococcus aureus Strain USA300 as a Cause of Necrotising Community-Onset Pneumonia. Lancet Infect. Dis. 2009, 9. 384-392) isolate of MRSA as well as a S. aureus strain isolated from a cystic fibrosis patient.

[2] = tested on: Staphylococcus aureus USA300 (MRSA isolate); experiment: MIC, S. aureus USA300 MRSA isolate (CLSI); conditions: read-out: MIC against Staphylococcus aureus USA300
Experimental: as §1

[3] = tested on: Staphylococcus aureus CF isolate; experiment: MIC, S. aureus cystic fibrosis isolate (CLSI); conditions: read-out: MIC against Staphylococcus aureus CF isolate
Experimental: as §1

[4] = tested on: Salmonella enterica 14028 ΔtolC (efflux-deficient strain); experiment: microbe, parasite or virus in culture; conditions: for MIC: Salmonella enterica, read-out: MIC against Salmonella enterica 14028 ΔtolC
Experimental: as §1

[5] = tested on: Staphylococcus aureus D83N (29213-derived strain, GyrA substitution); experiment: microbe, parasite or virus in culture; conditions: read-out: MIC against Staphylococcus aureus D83N
Experimental: as §1

[6] = tested on: Staphylococcus aureus M121K (29213-derived strain, GyrA substitution); experiment: microbe, parasite or virus in culture; conditions: read-out: MIC against Staphylococcus aureus M121K
Experimental: as §1

[7] = tested on: Escherichia coli ATCC 25922; experiment: MIC, Escherichia coli ATCC 25922
Experimental: as §1

[8] = tested on: Acinetobacter baumanii ATCC 19606; experiment: MIC, Acinetobacter baumanii ATCC 19606; conditions: Acinetobacter baumannii
Experimental: as §1

[9] = tested on: Pseudomonas aeruginosa ATCC 27853; experiment: MIC, Pseudomonas aeruginosa ATCC 27853
Experimental: as §1

[10] = tested on: Salmonella enterica ATCC 14028; experiment: MIC, Salmonella enterica ATCC 14028
Experimental: as §1

[11] = ATCC29213, read-out: MIC against Staphylococcus aureus ATCC 29213
[12] = ATCC25922, read-out: MIC against Escherichia coli ATCC 25922
[13] = ATCC19606, read-out: MIC against Acinetobacter baumanii ATCC 19606
[14] = ATCC27853, read-out: MIC against Pseudomonas aeruginosa ATCC 27853
[15] = ATCC14028, read-out: MIC against Salmonella enterica ATCC 14028
[16] = ATCC29213, strain ATCC 29213, triplicate, CLSI, read-out: MIC against Staphylococcus aureus ATCC 29213
[17] = USA300 MRSA isolate, ciprofloxacin-resistant
[18] = ATCC25922, strain ATCC 25922, read-out: MIC against Escherichia coli ATCC 25922
[19] = ATCC19606, strain ATCC 19606, read-out: MIC against Acinetobacter baumanii ATCC 19606
[20] = ATCC27853, strain ATCC 27853, read-out: MIC against Pseudomonas aeruginosa ATCC 27853
[21] = ATCC14028, strain ATCC 14028, read-out: MIC against Salmonella enterica ATCC 14028

COc1ccc2ncc(F)c(CCN3CCC(C(=O)Cc4ccc(C)cc4)CC3)c2n1 [Example 22, 1-(1-(2-(3-fluoro-6-methoxy-1,5-naphthyridin-4-yl)ethyl)piperidin-4-yl)-2-(p-tolyl)ethan-1-one]
MIC [1, 11]: 0.125 µg/mL (≈ 0.297 µM) | MIC [2]: 0.125 to 0.5 µg/mL (≈ 0.297 to 1.19 µM) | MIC [3]: 0.125 to 0.5 µg/mL (≈ 0.297 to 1.19 µM) | MIC [4]: 0.5 µg/mL (≈ 1.19 µM) | MIC [5]: 4 µg/mL (≈ 9.49 µM) | MIC [6]: 8 µg/mL (≈ 19 µM) | MIC [7, 12]: 16 µg/mL (≈ 38 µM) | MIC [8, 13]: 32 µg/mL (≈ 75.9 µM) | MIC [9, 14]: > 64 µg/mL | MIC [10, 15]: 64 µg/mL (≈ 152 µM)

O=c1ccc2ncc(=O)n3c2n1C[C@H]3CN1CCC(NCc2cc3c(cn2)OCCC3)CC1 [gepotidacin, reference compound]
MIC [1, 16]: 0.25 to 1 µg/mL (≈ 0.557 to 2.23 µM) | MIC [2, 17]: 0.125 to 1 µg/mL (≈ 0.279 to 2.23 µM) | MIC [3]: 0.125 to 0.5 µg/mL (≈ 0.279 to 1.11 µM) | MIC [4]: 0.125 to 0.5 µg/mL (≈ 0.279 to 1.11 µM) | MIC [5]: 4 to 32 µg/mL (≈ 8.92 to 71.3 µM) | MIC [6]: 8 to 32 µg/mL (≈ 17.8 to 71.3 µM) | MIC [7, 18]: 0.5 to 2 µg/mL (≈ 1.11 to 4.46 µM) | MIC [8, 19]: 32 to 64 µg/mL (≈ 71.3 to 143 µM) | MIC [9, 20]: 2 to 16 µg/mL (≈ 4.46 to 35.7 µM) | MIC [10, 21]: 2 to 8 µg/mL (≈ 4.46 to 17.8 µM)

COc1ccc2ncc(F)c(CCN3CCC([C@@H]4OC(=O)O[C@H]4c4ccc(C)cc4)CC3)c2n1 [Example 31, (4S,5S)-4-(1-(2-(3-fluoro-6-methoxy-1,5-naphthyridin-4-yl)ethyl)piperidin-4-yl)-5-(p-tolyl)-1,3-dioxolan-2-one]
MIC [1, 16]: 2 µg/mL (≈ 4.3 µM) | MIC [2, 17]: 2 µg/mL (≈ 4.3 µM) | MIC ([3]; isolate from individual with cystic fibrosis): 4 µg/mL (≈ 8.59 µM) | MIC [4]: 8 µg/mL (≈ 17.2 µM) | MIC [5]: > 32 µg/mL | MIC [6]: > 32 µg/mL | MIC [7, 18]: > 64 µg/mL | MIC [8, 19]: 64 µg/mL (≈ 137 µM) | MIC [9, 20]: > 64 µg/mL | MIC [10, 21]: > 64 µg/mL

COc1ccc2ncc(F)c(CCN3CCC(/C=C/c4ccc5c(c4)NC(=O)CO5)CC3)c2n1 [Example 3, (E)-6-(2-(1-(2-(3-fluoro-6-methoxy-1,5-naphthyridin-4-yl)ethyl)piperidin-4-yl)vinyl)-2H-benzo[b][1,4]oxazin-3(4H)-one]
MIC [1, 11]: 0.5 µg/mL (≈ 1.08 µM) | MIC [2]: ≤ 0.25 µg/mL | MIC [3]: 1 µg/mL (≈ 2.16 µM) | MIC [4]: 0.25 µg/mL (≈ 0.541 µM) | MIC [5]: 16 µg/mL (≈ 34.6 µM) | MIC [6]: 16 µg/mL (≈ 34.6 µM) | MIC [7, 12]: 4 µg/mL (≈ 8.65 µM) | MIC [8, 13]: 8 µg/mL (≈ 17.3 µM) | MIC [9, 14]: 4 µg/mL (≈ 8.65 µM) | MIC [10, 15]: 16 µg/mL (≈ 34.6 µM)

COc1ccc2ncc(F)c(CCN3CCC(/C=C/c4ccc5c(c4)OCCO5)CC3)c2n1 [Example 2, (E)-8-(2-(4-(2-(2,3-dihydrobenzo[b][1,4]dioxin-6-yl)vinyl)piperidin-1-yl)ethyl)-7-fluoro-2-methoxy-1,5-naphthyridine]
MIC [1, 11]: 0.25 µg/mL (≈ 0.556 µM) | MIC [2]: 0.5 µg/mL (≈ 1.11 µM) | MIC [3]: 0.5 µg/mL (≈ 1.11 µM) | MIC against Salmonella enterica 14028 ΔtolC ([4]; efflux-deficient strain): 0.125 µg/mL (≈ 0.278 µM) | MIC [5]: 2 µg/mL (≈ 4.45 µM) | MIC [6]: 2 µg/mL (≈ 4.45 µM) | MIC [7, 12]: 8 µg/mL (≈ 17.8 µM) | MIC [8, 13]: 8 µg/mL (≈ 17.8 µM) | MIC [9, 14]: 64 µg/mL (≈ 142 µM) | MIC [10, 15]: 64 µg/mL (≈ 142 µM)

COc1ccc2ncc(F)c(CCN3CCC(/C=C\c4ccc5c(c4)OCCO5)CC3)c2n1 [Example 11, (Z)-8-(2-(4-(2-(2,3-dihydrobenzo[b][1,4]dioxin-6-yl)vinyl)piperidin-1-yl)ethyl)-7-fluoro-2-methoxy-1,5-naphthyridine]
MIC [1, 11]: 8 µg/mL (≈ 17.8 µM) | MIC [2]: 8 µg/mL (≈ 17.8 µM) | MIC [3]: 9 µg/mL (≈ 20 µM) | MIC [4]: 4 µg/mL (≈ 8.9 µM) | MIC [5]: > 16 µg/mL | MIC [6]: > 16 µg/mL | MIC [7, 12]: > 64 µg/mL | MIC [8, 13]: 64 µg/mL (≈ 142 µM) | MIC [9, 14]: 64 µg/mL (≈ 142 µM) | MIC [10, 15]: > 64 µg/mL
